For series [1] the following is noted: in vivo; cited from earlier work.
Series [2] deals with symptoms of drug-induced peripheral neuropathy in multiple myeloma patients on chemotherapy. Nature of the series: Open labelled study of vitamin K2-7 on drug-induced peripheral neuropathy, symptoms scored by VAS. It counts as in vivo, human. As to conditions: for VAS Score: scale 0-10. On the procedure: An open labelled study was conducted to evaluate the effect of vitamin K2-7 on drug-induced peripheral neuropathy. Patients who were diagnosed with multiple myeloma and are on chemotherapy treatment for the same, were assessed for the occurrence of symptoms of peripheral neuropathy and then selected. Patients were given 2 capsules of 100 mcg or 350 mcg of vitamin K2-7 along with the ongoing chemotherapy. The evaluation of symptoms of peripheral neuropathy (such as tingling, numbness, burning sensation, muscle cramps etc.) were assessed by VAS score (Schematic 1) from 0 to 10 (nil to unbearable). The scale has been used in various studies to measure the intensity and severity of various symptoms of neuropathy.
As the patients continued with the therapy, it was observed that the VAS score for all the symptoms decreased to between the range of “1” and “2”. This decrease has happened over a period of 2 to 5 months, depending upon the individual cases treated. […] The examples given in Table 1, summarises the data for 11 patients who were on vitamin K2-7 therapy for drug-induced peripheral neuropathy due to treatment for multiple myeloma. In Table 1, treatment administered refer to the cyclical chemotherapy provided to the patients of multiple myeloma (MM). These cycles are normally of 3 weeks or 21 days period, based on the attending physician's assessment of the patient's condition and tolerance.
However, vitamin K2-7 was administered daily as two […] capsules.
Treatment with vitamin K2-7 of subjects continued even after their having reached VAS score of “2”.
The gradation was judged by Physician based on following criteria. By using Visual Analog Scale, i.e. 0-10 point scale: 0=Absent; 1-3=Mild; 4-6=Moderate; 7-10=Severe.

The conditions of series [3]: natural forms, even at high doses; cited from earlier work.

As usually defined, the half-life is how long it takes for the measured level to halve. As to `CC1=C(C/C=C(\C)CCC[C@H](C)CCC[C@H](C)CCCC(C)C)C(=O)c2ccccc2C1=O` [vitamin K1, phylloquinonc], the half-life in series [1] was 1.5 h.
On to `CC(C)=CCC/C(C)=C/CC/C(C)=C/CC/C(C)=C/CC/C(C)=C/CC/C(C)=C/CC/C(C)=C/CC1=C(C)C(=O)c2ccccc2C1=O` [Vitamin K2-7, vitamin K2-7], for which, in series [2] (1 of 11 patients who remained on 100 μg two times a day daily), the “improvement in peripheral neuropathy” value is recorded as “significant improvement”. Further, the “VAS Score” value in series [2] (Patient 1, chemotherapy Bortezomib, Cyclophosphamide, Dexamethasone since June 2014, K2-7 from 16 Jun. 15 (350 μg), VAS before 8, scored 10 Dec. 15) is given as 2; in series [2] (Patient 2, chemotherapy Lenalidomide, Dexamethasone since 2014, K2-7 from 25 Jun. 15 (350 μg), VAS before 8, scored 05 Nov. 15), 2; in series [2] (Patient 3, chemotherapy Lenalidomide, Dexamethasone, Zolendronic Acid since 2015, K2-7 from 19 Aug. 15 (100 μg), VAS before 8, scored 14 Mar. 16), 2; in series [2] (Patient 4, chemotherapy Bortezomib, Cyclophosphamide, Dexamethasone since 2015, K2-7 from 09 Jun. 16 (350 μg), VAS before 8, scored 22 Dec. 16), 1; in series [2] (Patient 5, chemotherapy Bortezomib, Cyclophosphamide, Dexamethasone since 2016, K2-7 from 23 Feb. 17 (350 μg), VAS before 9, scored 12 Aug. 17), 2; in series [2] (Patient 6, chemotherapy Rituximab, Cyclophosphamide, Doxorubicin, Vincristine, Prednisolone since November 2014, K2-7 from 22 May 17 (350 μg), VAS before 9, scored 04 Oct. 17), 2. The “VAS Score” value came out at 2 in series [2] (Patient 7, chemotherapy Lenalidomide, Dexamethasone since 2010, K2-7 from 30 Jun. 17 (350 μg), VAS before 8, scored 27 Dec. 17); 2 in series [2] (Patient 8, chemotherapy Bortezomib, Cyclophosphamide, Dexamethasone since March 2017, K2-7 from 03 Nov. 17 (350 μg), VAS before 7, scored 03 Apr. 18); 2 in series [2] (Patient 9, chemotherapy Bortezomib, Cyclophosphamide, Dexamethasone since 2016, K2-7 from 20 Jul. 16 (350 μg), VAS before 9, scored 11 Jan. 17); 3 in series [2] (Patient 10, chemotherapy Lenalidomide, Dexamethasone since 2016, K2-7 from 10 Jun. 17 (350 μg), VAS before 8, scored 10 Jan. 18); 2 in series [2] (Patient 11, chemotherapy Dexamethasone since 2016, K2-7 from 25 Mar. 17 (350 μg), VAS before 9, scored 29 Sep. 17). In addition, the “flare up of symptoms of drug-induced peripheral neuropathy” value in series [2] (continuation of vitamin K2-7 during subsequent chemotherapy cycles) is listed as “prevented the flair up”. The “adverse events during the vitamin K2-7 therapy” value in series [2] (multiple myeloma patients on chemotherapy) was “no adverse events were noted”. In series [2] (treatment continued after VAS score of 2), the “effect of continued treatment after reaching VAS score of 2” value was “stabilised the VAS Score”. For the same compound, in series [1], the half-life entry was “more than 72 hours”. Further, the symptoms of toxicity entry in series [3] is on record as “have not produced symptoms of toxicity”.

The values are drawn from patent publication US11628147B2, “Vitamin K2 compositions for the treatment of drug induced neuropathy” (priority 2017, dated 2023).
